We go through 18 molecules from US20230322767A1, “ARYL SUBSTITUTED PYRROLO-PYRIDINONES AND THERAPEUTIC USES THEREOF” (Bayer Aktiengesellschaft, priority 2020, published 2023).

Molecules are shown by their SMILES. Where two headings read alike, the source gives them in different places.

Format in all cases: biochemical
One experiment concerns the target CSNK1A1 (Homo sapiens (Human), UniProt P48729). In words: CSNK1A1 Assay 2 (ADP-Glo, 1 μM ATP). Conditions: median, read-out: CSNK1A1 Assay 2 IC50 [mol/l] (median). The method, boiled down: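 ADP-Glo luminescence, taken as ADP formed, reports activity against biotinylated phospho-peptide substrate biotin-Ahx-KRRRAL-pS-VASLPGL at 1 μM ATP.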
In general terms: ADP-Glo first removes unused ATP, then detects ADP through luciferase.

In the next experiment the target is CSNK1D (Homo sapiens (Human), UniProt P48730). Nature of the experiment: CSNK1D Assay (ADP-Glo, 1 μM ATP). The settings on record: median, read-out: CSNK1D IC50 [mol/l] (median). The method, boiled down:
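Enzyme preincubated with compound 15 min at 22° C in 50 mM HEPES pH 7.5 buffer with 10 mM MgCl2, 1 mM DTT; kinase reaction run at 1 μM ATP with biotinylated peptide substrate. ADP formed was detected by ADP-Glo luminescence as the measure of activity.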

Experiment [1] concerns the target wild-type Epidermal Growth Factor Receptor (EGFR) (Homo sapiens (Human), UniProt P00533). Nature of the experiment: WT-EGFR Kinase Assay (TR-FRET, 2 mM ATP). The method, boiled down: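 TR-FRET read-out of biotinylated peptide phosphorylation, taken as the 665/622 nm ratio after EDTA stop and 1 h detection at 22° C. Kinase: GST fusion of human EGFR aa R669–A1210, given a 15 min compound pre-binding step; reaction run at 2 mM ATP.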
(Time-resolved FRET reads energy transfer from a long-lived donor to a nearby acceptor.)

Setting [2] is: EGFR Wildtyp 2 mM ATP IC50 [mol/l] (median), median or individual measurements.
Setting [3] is: read-out: EGFR Wildtyp 2 mM ATP IC50 [mol/l] (median), median or individual measurements.

Chain of CSNK1A1 (P48729 whole entry): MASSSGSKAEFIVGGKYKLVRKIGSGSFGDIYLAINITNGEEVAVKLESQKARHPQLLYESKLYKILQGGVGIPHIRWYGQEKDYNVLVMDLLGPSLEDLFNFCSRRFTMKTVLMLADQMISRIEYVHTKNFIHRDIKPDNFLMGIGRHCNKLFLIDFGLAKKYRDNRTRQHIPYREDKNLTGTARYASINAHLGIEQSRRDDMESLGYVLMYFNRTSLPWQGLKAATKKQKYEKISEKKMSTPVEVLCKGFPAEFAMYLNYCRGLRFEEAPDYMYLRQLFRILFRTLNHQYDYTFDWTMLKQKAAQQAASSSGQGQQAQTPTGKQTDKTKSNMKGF
Chain of wild-type Epidermal Growth Factor Receptor (EGFR) (P00533 669-1210): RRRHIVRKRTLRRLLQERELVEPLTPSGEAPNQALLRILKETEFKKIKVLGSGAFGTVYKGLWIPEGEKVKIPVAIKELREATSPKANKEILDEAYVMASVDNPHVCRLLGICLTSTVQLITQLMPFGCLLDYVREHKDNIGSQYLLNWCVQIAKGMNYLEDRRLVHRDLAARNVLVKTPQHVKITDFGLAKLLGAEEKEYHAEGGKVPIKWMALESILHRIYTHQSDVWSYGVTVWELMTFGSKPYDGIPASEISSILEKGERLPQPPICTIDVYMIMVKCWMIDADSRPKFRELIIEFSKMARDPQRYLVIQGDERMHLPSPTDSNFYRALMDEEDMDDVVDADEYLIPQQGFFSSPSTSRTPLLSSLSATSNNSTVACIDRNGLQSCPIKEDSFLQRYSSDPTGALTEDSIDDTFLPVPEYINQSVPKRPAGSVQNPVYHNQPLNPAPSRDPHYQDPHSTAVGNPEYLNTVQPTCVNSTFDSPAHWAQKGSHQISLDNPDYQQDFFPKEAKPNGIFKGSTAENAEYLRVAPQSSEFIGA
Chain of CSNK1D (P48730 whole entry): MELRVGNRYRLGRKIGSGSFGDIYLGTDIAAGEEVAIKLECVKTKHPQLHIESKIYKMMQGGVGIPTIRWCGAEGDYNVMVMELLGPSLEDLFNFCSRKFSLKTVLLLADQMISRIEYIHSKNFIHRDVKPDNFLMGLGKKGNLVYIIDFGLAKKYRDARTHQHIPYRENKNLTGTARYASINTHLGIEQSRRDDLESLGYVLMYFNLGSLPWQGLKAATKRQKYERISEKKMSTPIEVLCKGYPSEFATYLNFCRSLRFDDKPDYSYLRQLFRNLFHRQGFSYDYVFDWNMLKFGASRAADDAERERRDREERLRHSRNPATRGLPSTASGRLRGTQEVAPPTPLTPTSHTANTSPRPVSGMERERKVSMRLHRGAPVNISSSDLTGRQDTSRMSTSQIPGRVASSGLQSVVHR

Turning to `CN1CCc2[nH]c(-c3ccnc(NC(=O)C(CC(F)F)c4ccc(F)cc4)c3)c(-c3ccc(F)cc3F)c2C1=O` (single isomer, unassigned) [Example 67, N-{4-[3-(2,4-difluorophenyl)-5-methyl-4-oxo-4,5,6,7-tetrahydro-1H-pyrrolo[3,2-c]pyridin-2-yl]pyridin-2-yl}-4,4-difluoro-2-(4-fluorophenyl)butanamide], the IC50 at CSNK1A1 was 16 nM; at CSNK1D, 8.6 nM; in experiment [1] (setting [2]) it was over 20000 nM.
Regarding `CN1CCc2[nH]c(-c3ccnc(NC(=O)C(CC(F)F)c4ccc(F)cc4)c3)c(-c3ccc(F)cc3F)c2C1=O` (single isomer, unassigned) [Example 68, N-{4-[3-(2,4-difluorophenyl)-5-methyl-4-oxo-4,5,6,7-tetrahydro-1H-pyrrolo[3,2-c]pyridin-2-yl]pyridin-2-yl}-4,4-difluoro-2-(4-fluorophenyl)butanamide], the IC50 at CSNK1A1 is 4.1 nM; on CSNK1D, 5.6 nM; in experiment [1] (setting [3]), over 20000 nM.
Turning to `CC(C(=O)Nc1cc(-c2[nH]c3c(c2-c2ccc(F)cc2F)C(=O)N(C)CC3)ccn1)c1ccc(F)cc1` (single isomer, unassigned) [Example 70, N-{4-[3-(2,4-difluorophenyl)-5-methyl-4-oxo-4,5,6,7-tetrahydro-1H-pyrrolo[3,2-c]pyridin-2-yl]pyridin-2-yl}-2-(4-fluorophenyl)propanamide], the IC50 on CSNK1A1 is 16 nM; on CSNK1D, 7.6 nM; in experiment [1] (setting [2]) it was over 20000 nM.
Take `CC(C(=O)Nc1cc(-c2[nH]c3c(c2-c2ccc(F)cc2F)C(=O)N(C)CC3)ccn1)c1ccc(F)cc1` (single isomer, unassigned) [Example 71, N-{4-[3-(2,4-difluorophenyl)-5-methyl-4-oxo-4,5,6,7-tetrahydro-1H-pyrrolo[3,2-c]pyridin-2-yl]pyridin-2-yl}-2-(4-fluorophenyl)propanamide]: the IC50 on CSNK1A1 is 1.7 nM; at CSNK1D, 2.1 nM; in experiment [1] (setting [3]) it was over 20000 nM.
With `CC(C(=O)Nc1cc(-c2[nH]c3c(c2-c2ccc(F)cc2)C(=O)NC(C)(C)C3)ccn1)c1ccc(F)cc1` (single isomer, unassigned) [Example 95, 2-(4-fluorophenyl)-N-{4-[3-(4-fluorophenyl)-6,6-dimethyl-4-oxo-4,5,6,7-tetrahydro-1H-pyrrolo[3,2-c]pyridin-2-yl]pyridin-2-yl}propanamide], the IC50 was 14 nM on CSNK1A1, 4.6 nM at CSNK1D and over 20000 nM in experiment [1] (setting [2]).
In the case of `CC(C(=O)Nc1cc(-c2[nH]c3c(c2-c2ccc(F)cc2)C(=O)NC(C)(C)C3)ccn1)c1ccc(F)cc1` (single isomer, unassigned) [Example 96, 2-(4-fluorophenyl)-N-{4-[3-(4-fluorophenyl)-6,6-dimethyl-4-oxo-4,5,6,7-tetrahydro-1H-pyrrolo[3,2-c]pyridin-2-yl]pyridin-2-yl}propanamide], the IC50 at CSNK1A1 is 1.3 nM; at CSNK1D, 2 nM; in experiment [1] (setting [3]), over 20000 nM.
Turning to `CC(C(=O)Nc1cc(-c2[nH]c3c(c2-c2cccnc2)C(=O)NC(C)(C)C3)ccn1)c1ccc(F)cc1` (single isomer, unassigned) [Example 98, N-{4-[6,6-dimethyl-4-oxo-3-(pyridin-3-yl)-4,5,6,7-tetrahydro-1H-pyrrolo[3,2-c]pyridin-2-yl]pyridin-2-yl}-2-(4-fluorophenyl)propanamide], the IC50 at CSNK1A1 is 71 nM; on CSNK1D, 19 nM; in experiment [1] (setting [2]), over 20000 nM.
For the molecule `CC(C(=O)Nc1cc(-c2[nH]c3c(c2-c2cccnc2)C(=O)NC(C)(C)C3)ccn1)c1ccc(F)cc1` (single isomer, unassigned) [Example 99, N-{4-[6,6-dimethyl-4-oxo-3-(pyridin-3-yl)-4,5,6,7-tetrahydro-1H-pyrrolo[3,2-c]pyridin-2-yl]pyridin-2-yl}-2-(4-fluorophenyl)propanamide], the IC50 on CSNK1A1 is 4.3 nM; on CSNK1D it was 5.5 nM; in experiment [1] (setting [3]), over 20000 nM.
On to `CC(C(=O)Nc1cc(-c2[nH]c3ccn(C)c(=O)c3c2-c2ccccc2)ccn1)c1ccc(F)cc1` (single isomer, unassigned) [Example 104, 2-(4-fluorophenyl)-N-[4-(5-methyl-4-oxo-3-phenyl-4,5-dihydro-1H-pyrrolo[3,2-c]pyridin-2-yl)pyridin-2-yl]propanamide], for which the IC50 on CSNK1A1 was 7 nM; at CSNK1D, 5.1 nM; in experiment [1] (setting [2]), over 20000 nM.
For `CC(C(=O)Nc1cc(-c2[nH]c3ccn(C)c(=O)c3c2-c2ccccc2)ccn1)c1ccc(F)cc1` (single isomer, unassigned) [Example 105, 2-(4-fluorophenyl)-N-[4-(5-methyl-4-oxo-3-phenyl-4,5-dihydro-1H-pyrrolo[3,2-c]pyridin-2-yl)pyridin-2-yl]propanamide], in that order: 0.71 nM, 1.5 nM and 8220 nM.
On to `Cn1cc(CC(F)F)c2[nH]c(-c3ccnc(NC(=O)C(CC(F)F)c4ccc(F)cc4)c3)c(-c3ccccc3)c2c1=O` (single isomer, unassigned) [Example 148, N-{4-[7-(2,2-difluoroethyl)-5-methyl-4-oxo-3-phenyl-4,5-dihydro-1H-pyrrolo[3,2-c]pyridin-2-yl]pyridin-2-yl}-4,4-difluoro-2-(4-fluorophenyl)butanamide], for which the values for the IC50 (on CSNK1A1; at CSNK1D; in experiment [1] (setting [2])) were 12 nM, 6.8 nM and 8750 nM, respectively.
The like results for `Cn1cc(CC(F)F)c2[nH]c(-c3ccnc(NC(=O)C(CC(F)F)c4ccc(F)cc4)c3)c(-c3ccccc3)c2c1=O` (single isomer, unassigned) [Example 149, N-{4-[7-(2,2-difluoroethyl)-5-methyl-4-oxo-3-phenyl-4,5-dihydro-1H-pyrrolo[3,2-c]pyridin-2-yl]pyridin-2-yl}-4,4-difluoro-2-(4-fluorophenyl)butanamide] were, in that order, 3.7 nM, 3.8 nM and over 20000 nM.
Regarding `CC(C(=O)Nc1cc(-c2[nH]c3c(c2-c2ccccc2)C(=O)N(C)CC3)ccn1)c1ccncc1` (single isomer, unassigned) [Example 155, N-[4-(5-methyl-4-oxo-3-phenyl-4,5,6,7-tetrahydro-1H-pyrrolo[3,2-c]pyridin-2-yl)pyridin-2-yl]-2-(pyridin-4-yl)propanamide], the IC50 was 1.3 nM on CSNK1A1, 2 nM on CSNK1D and over 20000 nM in experiment [1] (setting [2]).
As for `O=C(Nc1cc(-c2[nH]c3ccn(C4CC4)c(=O)c3c2-c2ccccc2)ccn1)C(CC(F)F)c1ccc(F)cc1` (single isomer, unassigned) [Example 157, (2R or S)—N-[4-(5-cyclopropyl-4-oxo-3-phenyl-4,5-dihydro-1H-pyrrolo[3,2-c]pyridin-2-yl)pyridin-2-yl]-4,4-difluoro-2-(4-fluorophenyl)butanamide], the IC50 at CSNK1A1 is 2 nM; at CSNK1D it was 2.3 nM; in experiment [1] (setting [2]), over 20000 nM.
As to `O=C(Nc1cc(-c2[nH]c3ccn(C4CC4)c(=O)c3c2-c2ccccc2)ccn1)C(CC(F)F)c1ccc(F)cc1` (single isomer, unassigned) [Example 158, (2R or S)—N-[4-(5-cyclopropyl-4-oxo-3-phenyl-4,5-dihydro-1H-pyrrolo[3,2-c]pyridin-2-yl)pyridin-2-yl]-4,4-difluoro-2-(4-fluorophenyl)butanamide], the values for the IC50 (on CSNK1A1; at CSNK1D; in experiment [1] (setting [3])) were 3.2 nM, 5.1 nM and over 20000 nM, respectively.
Regarding `CC(C(=O)Nc1cc(-c2[nH]c3ccn(C)c(=O)c3c2-c2ccc(F)cc2)ccn1)c1ccc(F)cc1` (single isomer, unassigned; (+)) [Example 102, (+)-2-(4-fluorophenyl)-N-{4-[3-(4-fluorophenyl)-5-methyl-4-oxo-4,5-dihydro-1H-pyrrolo[3,2-c]pyridin-2-yl]pyridin-2-yl}propanamide], the results for the IC50 (on CSNK1A1; on CSNK1D; in experiment [1] (setting [2])) were 1 nM, 2 nM and 875 nM, respectively.
Turning to `Cn1ccc2[nH]c(-c3ccnc(NC(=O)C(CC(F)F)c4ccc(F)cc4)c3)c(-c3ccc(F)cc3)c2c1=O` (single isomer, unassigned; (+)) [Example 109, (+)-4,4-difluoro-2-(4-fluorophenyl)-N-{4-[3-(4-fluorophenyl)-5-methyl-4-oxo-4,5-dihydro-1H-pyrrolo[3,2-c]pyridin-2-yl]pyridin-2-yl}butanamide], the results for the IC50 (on CSNK1A1; on CSNK1D; in experiment [1] (setting [2])) were 2.1 nM, 3.7 nM and 3850 nM, respectively.
Turning to `O=C(Nc1cc(-c2[nH]c3ccn(C4CC4)c(=O)c3c2-c2ccc(F)cc2)ccn1)C(CC(F)F)c1ccc(F)cc1` (single isomer, unassigned; (+)) [Example 136, (+)-N-{4-[5-cyclopropyl-3-(4-fluorophenyl)-4-oxo-4,5-dihydro-1H-pyrrolo[3,2-c]pyridin-2-yl]pyridin-2-yl}-4,4-difluoro-2-(4-fluorophenyl)butanamide], the IC50 on CSNK1A1 is 3.1 nM; at CSNK1D, 2.1 nM; in experiment [1] (setting [3]), over 20000 nM.
